For assay [1], the system named is endogenous KAP1 from HCT116 cells. Nature of the assay: pull-down with Strep-tagged HP1α, Western blot. In kind it is binding. To be noted: Strep-tagged full-length HP1α, 3 biological replicates. The procedure:
For all AP experiments, HCT116 cells were seeded in 10 cm plates (~4 million cells per dish) and transfected with Strep- and Flag-tagged plasmids one-day after seeding cells. Two days post-transfection, cells were collected in PBS and lysed with passive lysis buffer (PLB: 50 mM Tris-HCl pH 7.5, 150 mM NaCl, 1 mM DTT, 1.0% NP-40, 1.5 mM MgCl2, 5% v/v glycerol, and 1X complete, Mini EDTA-free, EASYpack Protease Inhibitor [Roche, Cat# 4693159001]) by resuspending cells in PLB, vortexing briefly, nutating for 15 min at 4 °C, and centrifuging the lysate (10,000 × g, 10 min, 4 °C). Strep-Tactin superflow resin (IBA Life Sciences, Cat# 2-1208-010), was equilibrated by centrifuging beads (2000 RPM, 2 min, 4 °C), removing storage buffer, and washing three times with PLB with nutation for 5 min at 4 °C. Beads were volumed back to their original volume, and 40 µL beads were used per AP and bound for 2 h. Beads were then washed with AP Wash Buffer (50 mM Tris-HCl pH 7.5, 250 mM NaCl, 1 mM DTT, 0.2% NP-40, 1.5 mM MgCl2, and 5% v/v glycerol), and eluted with Strep-tag Elution Buffer containing D-Desthiobiotin (IBA Life Sciences, Cat# 2-1000-025).
All western blots were run on 10-12% SDS-PAGE gels and transferred on nitrocellulose membranes (Bio-Rad, Cat# 1620115) using the Bio-Rad Trans-Blot Turbo Transfer System, blocked for 1 h in 5% Milk (or BSA) with Tris-buffered saline-Tween-20 (TBST), probed with primary antibody in 5% Milk (or BSA) with TBST. Blots were exposed using either Clarity Western ECL (Bio-Rad, Cat# 1705060) or utilizing the starbright secondary channel. KAP1 and CBX5/HP1a mutants for Western blot assays were generated using QuikChange II XL Site-Directed Mutagenesis kit (Agilent, Cat# 200522) per manufacturer’s instructions. PCR amplified DNAs were transformed into E. coli BME treated XL-10 Gold provided in the kit and positive clones validated by Sanger Sequencing. […]
Tryptophan fluorescence data are presented as average of three independent measurements ±SD. […]
(Immunoblotting shows a protein as a band on a membrane.)

Assay [2] relates to 147 bp Widom 601 DNA (DNA147). Nature of the assay: EMSA. Format: binding. The note with it: for DNA binding of protein or peptide itself: 0.25 pmol/lane DNA147, 25 mM Tris-HCl pH 7.5, 150 mM NaCl, peptides without HP1α. The procedure:
(§1) Human full-length HP1α and HP1αCSD (aa 109–185 of HP1α) were cloned into a pGEX4T-1 expression vector and expressed in E. coli BL21 Rosetta (DE3) pLysS cells grown in Luria Broth or M9 minimal media supplemented with ^15NH4Cl (Sigma-Aldrich). Following induction with 0.5 mM isopropyl β-D-1-thiogalactopyranoside (IPTG) for 20 h at 16 °C, cells were harvested by centrifugation and lysed by sonication. GST-tag fusion proteins were purified on glutathione agarose 4B beads (Thermo Fisher Sci) in 50 mM Tris-HCl (pH 7.5) buffer, supplemented with 500 mM NaCl and 5 mM β-mercaptoethanol. The GST tag was cleaved with TEV (Tobacco Etch Virus) protease overnight at 4 °C. Proteins were further purified by size exclusion chromatography (SEC) and concentrated in Millipore concentrators. Mutants were generated by site-directed mutagenesis using the Stratagene QuikChange mutagenesis protocol and were purified as wild-type proteins.
The protein was expressed in E. coli BL21(DE3) RIL competent cells in Luria Broth, induced with 0.5 mM IPTG and grown for 20 h at 16 °C. The cells were harvested by centrifugation and lysed by sonication. […] The protein was eluted in 50 mM Tris-HCl (pH 7.5) buffer supplemented with 500 mM NaCl, 500 mM imidazole and 5 mM DTT. The protein was further purified by size exclusion chromatography using a HiLoad16/600 Superdex 75 column (Cytiva) and buffer containing 50 mM Tris-HCl (pH 7.5), 500 mM NaCl and 5 mM DTT. The eluted protein fractions were analyzed by SDS-PAGE. The fractions were pooled, concentrated and exchanged with buffer containing […] pH 7.5, 150 mM NaCl and 2.5 mM DTT. The His-SUMO tag was cleaved overnight at 4 °C with Ulp1 enzyme and the tag was removed using Ni-NTA beads. The purified KAP1Hbox’ was concentrated in Millipore concentrators.
The buffer containing 25 mM Tris-HCl pH 7.5, 150 mM NaCl and 2.5 mM DTT was used to make up the final reaction volume of 10 µL. The samples were incubated for 1 h on ice and then loaded on a 8% native PAGE gel and run for 2 h at 80 V in 0.5× Tris-borate-EDTA (TBE) on ice. The gels were stained with SYBR Gold (Thermo Fisher Sci) and visualized by Blue LED (UltraThin LED Illuminator-GelCompany).
Tryptophan fluorescence data are presented as average of three independent measurements ±SD. […] EMSA experiments in Fig. 4 and Supplementary Figs. 6 and 7 were performed at least twice.
For orientation: In EMSA bound probe runs differently from free probe, usually more slowly.

For assay [3], the system named is HP1αCSD’. Nature of the assay: NMR chemical shift perturbation of 15N-labeled HP1αCSD’. In kind it is binding, human. To be noted: 50 μM 15N-labeled HP1αCSD’ with 1 mM unlabeled HP1αCSD’ or 900 μM unlabeled HP1αCD; 1H,15N HSQC. As for the experimental part: NMR experiments for amide chemical shift assignments were collected at 310 K on an Avance Neo Bruker 800 MHz spectrometer equipped with a TXO cryo-probe optimized for ^15N detection. The HP1αCSD’ construct (aa 112–176 of HP1α) and the CD of HP1α (aa 18–75 of HP1α, HP1αCD) were purified as described. Experiments were performed in buffer containing 20 mM HEPES (90% H2O/10% D2O), pH 7.2, 75 mM KCl, 1 mM TCEP, and 0.01% NaN3. Chemical shift assignments were performed on a 400 μM uniformly ^13C/^15N-labeled HP1αCSD’ sample using standard 2D ^1H,^15N HSQC, 3D HNCACB and 3D CBCA(CO)NH experiments[56]–[58]. Data were processed with NMRPipe[54] and analyzed in NMRFAM-SPARKY[59] (Sparky). […]
Fig. 10, ^1H,^15N HSQC spectra were recorded on 50 μM ^15N-labeled HP1αCSD’ samples with and without 1 mM unlabeled HP1αCSD’ or with and without 900 μM unlabeled HP1αCD. The resonance perturbation analysis was performed using the […][60],[61] as follows:3 Δδcombined=∣ΔδH∣+α∣ΔδN∣ The ∆δcombined is the sum of the absolute chemical shift change. ∆δH is the change in the ^1H chemical shift. ∆δN is the change in the ^15N chemical shift. α (0.105) is the scaling factor calculated by using the ratio between the backbone ^1H chemical shift range and ^15N chemical shift range from the ^1H,^15N HSQC spectrum.

Assay [4] addresses T1, HP1αCSD (Homo sapiens, UniProt P45973).
T1 construct: HP1αCSD (aa 109–185 of HP1α); GST (N, cleaved yes); made in house; host or cells: E. coli BL21 Rosetta (DE3) pLysS
Nature of the assay: 1H,15N HSQC NMR titration of 15N-labeled HP1αCSD with KAP1Hbox. In kind it is binding. To be noted: 0.1–0.2 mM 15N-labeled protein, 20 mM Tris pH 6.8, 150 mM NaCl, 2 mM DTT, 10% D2O, 298 K.
Source text: NMR data were processed and analyzed with NMRPipe[54] and NMRDraw as described[55].

For assay [5], the system named is W174A mutant of HP1αCSD. Nature of the assay: 1H,15N HSQC NMR titration of W174A HP1αCSD with KAP1Hbox. The note with it: 15N-labeled W174A HP1αCSD, 20 mM Tris pH 6.8, 150 mM NaCl, 2 mM DTT, 298 K. Format: binding, human. The procedure:
as §1
(§2) NMR data were processed and analyzed with NMRPipe[54] and NMRDraw as described. Normalized chemical shift perturbations shown in Fig. 3b were calculated using the equation:2 Δδ=ΔδH^2+ΔδN/5^2 where Δδ is the change in chemical shift in parts per million (ppm).

Assay [6] concerns I165E mutant of HP1αCSD. Put plainly: 1H,15N HSQC NMR titration of I165E HP1αCSD with KAP1Hbox. In kind it is binding, human. To be noted: 15N-labeled I165E HP1αCSD, 20 mM Tris pH 6.8, 150 mM NaCl, 2 mM DTT, 298 K. The procedure: as §1, §2
Assay [7] has as its system FL HP1α. Put plainly: mass photometry with KAP1Hbox (Fig. 5j). Also noted: species or system human. The note with it: 2:1 molar ratio HP1α:KAP1Hbox. As for the experimental part: as §1
(§3) Mass photometry (MP) assays shown in Fig. 5c, j, were performed on a Refeyn Two^MP mass photometer (Refeyn Ltd, Oxford, UK) to determine oligomeric states of FL and L139E/L150E HP1α. Each sample was loaded into the sample wells of the silicon cassettes assembled onto MassGlass UC coverslips (Refeyn, Ltd.). Samples for measurements were prepared by rapid in-drop dilution and measurements were performed at room temperature in buffer (50 mM Tris pH 7.5, 150 mM NaCl, 5 mM DTT). […]

Assay [8] relates to L139E/L150E FL HP1α. Nature of the assay: mass photometry with KAP1Hbox (Fig. 5j). The note with it: 2:1 molar ratio HP1α:KAP1Hbox. Also noted: species or system human. As for the experimental part:
as §1, §3

In assay [9] the test system is L139E/L150E HP1αCSD. Nature of the assay: 1H,15N HSQC NMR titration of L139E/L150E HP1αCSD with KAP1Hbox. Format: binding, human. To be noted: 15N-labeled L139E/L150E HP1αCSD, 20 mM Tris pH 6.8, 150 mM NaCl, 2 mM DTT, 298 K. The procedure: as §1, §2
The test system of assay [10] is I165E HP1αCSD. Nature of the assay: NMR titration of 15N-labeled I165E HP1αCSD with unlabeled HP1αCSD. In kind it is binding, human. As for the experimental part:
as §1, §2

T1 sequence (P45973 109-185): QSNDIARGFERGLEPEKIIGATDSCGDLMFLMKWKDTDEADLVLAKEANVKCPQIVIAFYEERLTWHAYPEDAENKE

For FL HP1α: Human full-length HP1α, the “pull-down of endogenous KAP1” value in assay [1] is recorded as “immunoprecipitated”. Besides, in assay [2] (2.5 mM DTT, 1 h on ice), the “DNA binding of protein or peptide itself” value is “forms a complex with DNA147”.
As for “I165E HP1α: I165E mutant of full-length HP1α (dimerization interface), Strep-tagged”, in [1], the “pull-down of endogenous KAP1” value is “not”.
In the case of “CD domain: CD of HP1α (aa 18–75 of HP1α)”, the “resonance perturbations in HP1αCSD’” value in assay [3] is “does not induce such changes”.
For “V488E mutant of KAP1Hbox: V488E mutant of KAP1Hbox peptide (RKVPRESLERL)”, the “binding by CSPs in HSQC” value in assay [4] is listed as “no CSP were observed”.
`CC(C)C[C@H](NC(=O)[C@H](CCCNC(=N)N)NC(=O)[C@H](CCC(=O)O)NC(=O)[C@H](CC(C)C)NC(=O)[C@H](CO)NC(=O)[C@@H](NC(=O)[C@H](CCCNC(=N)N)NC(=O)[C@@H]1CCCN1C(=O)[C@@H](NC(=O)[C@H](CCCCN)NC(=O)[C@@H](N)CCCNC(=N)N)C(C)C)C(C)C)C(=O)O` [KAP1Hbox]: the “binding by CSPs in HSQC” value in assay [5] is “no CSP were observed”; in assay [6], “disrupted”; in assay [9], “does not disrupt the CSD-KAP1Hbox complex formation”. The “DNA binding of protein or peptide itself” value in assay [2] (2.5 mM DTT, 1 h on ice) was “did not appreciably bind DNA”. For the same compound, in assay [2] (FL HP1α, tenfold molar excess of peptide, 25 mM Tris-HCl pH 7.5, 150 mM NaCl, 2.5 mM DTT, 1 h on ice, 8% native PAGE), the “effect of peptide on binding of HP1α to DNA147” value is given as “augmented binding of HP1α to DNA”. Further, the “effect on oligomerization of WT FL HP1α” value in [7] is “further increased oligomerization of WT FL HP1α”. Further, in [8], the “KAP1Hbox-promoted oligomerization of L139E/L150E FL HP1α” value was “markedly decreased”.
Consider “HP1αCSD: aa 109–185 of HP1α, chromoshadow domain”, for which the “resonance perturbations in HP1αCSD’” value in [3] is “resonance perturbations observed”. In addition, the “CSPs in I165E HP1αCSD” value in assay [10] is recorded as “led to CSPs”. Besides, in [2] (isolated HP1αCSD, with and without KAP1Hbox (1:10)), the “shift of DNA band by HP1αCSD in presence or absence of KAP1Hbox” value is “unable to shift the DNA band”.
As to “W174A HP1α: W174A mutant of full-length HP1α, Strep-tagged”, the “pull-down of endogenous KAP1” value in [1] is “not”.

The record behind these values is publication PMC12126490, “The HP1 box of KAP1 organizes HP1α for silencing of endogenous retroviral elements in embryonic stem cells” (Nature Communications, 2025).
